Measured values taken from ChEMBL document CHEMBL1143524, “Anti-tumor abietane diterpenes from the cones of Sequoia sempervirens” (2005).
In brackets after ≈: the same amount, converted by molar mass.

Columns and labels:
Type in all cases: functional
[1] = species on record: Rattus norvegicus; assay: Growth inhibitory activity against H-ras transformed rat 2 tumor cell line; conditions: Rat2
[2] = tested on: MDA-MB-231; assay: Growth inhibitory activity against human MDA-MB-231 breast tumor cell line
[3] = tested on: HCT-116; assay: Growth inhibitory activity against human HCT116 colon tumor cell line
[4] = tested on: A549; assay: Inhibitory activity against human A549 lung tumor cell proliferation
[5] = tested on: SW-620; assay: Growth inhibitory activity against human SW620 colon tumor cell line
[6] = tested on: NCI-H23; assay: Growth inhibitory activity against human NCI-H23 lung tumor cell line

Q: `CC(C)c1cc2c(cc1O)[C@@]1(C)CCCC(C)(C)[C@@H]1C(O)C2=O` (some centres not stated) was tested. Which GI50 [1] did it give?
A: 3.5 µg/mL (≈ 11.1 µM)

Q: And the GI50 [2]?
A: 3.64 µg/mL (≈ 11.5 µM)

Q: And the GI50 [3]?
A: 2.52 µg/mL (≈ 7.96 µM)

Q: And the GI50 [4]?
A: 1.42 µg/mL (≈ 4.49 µM)

Q: And the GI50 [5]?
A: 3.98 µg/mL (≈ 12.6 µM)

Q: What about the GI50 [6] of the same molecule?
A: 2.21 µg/mL (≈ 6.98 µM)

Q: For `CC(C)c1cc2c(cc1O)[C@@]1(C)CCC[C@@](C)(CO)[C@@H]1CC2` [18-HYDROXYFERRUGINOL], which GI50 [2] is on record?
A: < 50 µg/mL

Q: And the GI50 [3]?
A: < 50 µg/mL

Q: What about the GI50 [4] of the same molecule?
A: < 50 µg/mL

Q: What about the GI50 [5] of the same molecule?
A: < 50 µg/mL

Q: And the GI50 [6]?
A: < 50 µg/mL

Q: What does the source list for `CC(C)c1cc2c(cc1O)[C@@]1(C)CCCC(C)(C)[C@@H]1CC2` [FERRUGINOL]?
A: GI50 [2]: < 50 µg/mL; GI50 [3]: < 50 µg/mL; GI50 [4]: < 50 µg/mL; GI50 [5]: < 50 µg/mL; GI50 [6]: < 50 µg/mL

Q: For `CC(C)c1cc2c(cc1O)[C@@]1(CO)CCCC(C)(C)[C@@H]1CC2` [PISIFEROL], which GI50 [1] is on record?
A: 2.3 µg/mL (≈ 7.6 µM)

Q: What about the GI50 [2] of the same molecule?
A: 8.34 µg/mL (≈ 27.6 µM)

Q: What about the GI50 [3] of the same molecule?
A: 4.34 µg/mL (≈ 14.3 µM)

Q: And the GI50 [4]?
A: 2.9 µg/mL (≈ 9.59 µM)

Q: What about the GI50 [5] of the same molecule?
A: 8.22 µg/mL (≈ 27.2 µM)

Q: And the GI50 [6]?
A: 2.8 µg/mL (≈ 9.26 µM)

Q: `CC(C)c1cc2c(cc1O)[C@@]1(C)CCCC(C)(C)[C@@H]1CC2=O` [SUGIOL] was tested. Which GI50 [2] did it give?
A: < 50 µg/mL

Q: What about the GI50 [3] of the same molecule?
A: < 50 µg/mL

Q: And the GI50 [4]?
A: < 50 µg/mL

Q: What about the GI50 [5] of the same molecule?
A: < 50 µg/mL

Q: What about the GI50 [6] of the same molecule?
A: < 50 µg/mL
